# Measured values taken from patent publication US20150086986A1, “METHOD TO PREDICT THE PRESENCE OF INFLAMMATION OR ITACONIC ACID, IRG1 AND/OR PROTEIN IRG1 IN A SUBJECT AND PHARMACEUTICAL COMPOSITION FOR TREATING OR PREVENTING INFLAMMATION” (priority 2011, published 2015).
# Tests used:
# [1] = test system: bacterial isocytrate lyase (ICL); details: literature reports; cited from earlier work
# Streptococcus pyogenes = assay: Bacterial phagocytosis and killing assay in siRNA-transfected RAW264.7 macrophages infected with S. pyogenes; assay type: cell-based; details: streptococci compared with Salmonella
# Protocol: Bacterial phagocytosis and killing assay were conducted to test the influence of the uptake of S. pyogenes by transfected (siRNA IRG1) mouse macrophages (RAW264.7 cell line) after 1 h, 2 h and 4 h of incubation.
# Transfected RAW264.7 macrophages (with unspecific siRNA or IRG1 specific siRNA) were infected with Streptococcus pyogenes strain A20 at a multiplicity of infection (MOI) of 10:1 (10 bacteria per macrophage) and incubated for 1 h at 37° C., 5% CO2. Macrophages were then washed with sterile PBS, resuspended in complete medium containing […] gentamicin to kill non ingested bacteria and further incubated for 2 h at 37° C., 5% CO2. Macrophages were then disrupted with dH2O to release intracellular bacteria (this was considered time 0 h relative to gentamicin treatment) or 1, 2, 4 h later (this was considered time 1, 2, 4 h relative to gentamicin treatment) and the amount of viable intracellular bacteria was determined by plating on blood agar.
# RAW264.7 cells were transfected with either siRNA specific for IRG1 or with siRNA Ctr. […] Macrophages were then disrupted with H2O to release intracellular bacteria and the amount of viable intracellular bacteria was determined by plating on blood agar. […]
# [2] = test system: Salmonella enterica serovar Typhimurium; assay: S. enterica growth in liquid minimal medium with acetate as unique carbon source; assay type: cell-based
# Protocol: To directly investigate the effect of itaconic acid on bacterial replication, S. enterica was grown in liquid minimal medium supplemented with acetate as the unique carbon source and various concentrations of itaconic acid. […] S. enterica was grown in liquid medium with acetate as unique carbon source in the presence of increasing concentrations of itaconic acid (5, 10, 50, 100 mM). The optical density (OD) was measured every hour to record the bacterial growth. Curves are calculated in % relative to time 0 and represent the mean of three independent experiments.
# [3] = Cis-aconitate decarboxylase (CAD) activity assay of purified Flag-IRG1; assay type: biochemical, Mus musculus; details: peak activity fraction; 1 mM cis-aconitate, 30° C., 40 min, pH 7.1
# Protocol: HEK293T cells were extracted 48 hours after transfection by scraping them into a lysis buffer containing 25 mM Hepes, pH 7.1 and 1× protease inhibitor cocktail (Roche). After two freeze/thaw cycles, cell extracts were incubated for 30 min on ice in the presence of DNAse I (200 U/ml extract; Roche Applied Science) and 10 mM MgSO4. The crude cell extracts were centrifuged for 5 min at 16000×g (4° C.) and pellets were resuspended in lysis buffer for SDS-PAGE analysis. Flag-IRG1 was purified from the supernatant using the Flag®M purification kit, according to the manufacturer's instructions (Sigma Aldrich). […] Protein concentration was measured by the Bradford assay using Bradford reagent (Bio-Rad).
# Cis-aconitate decarboxylase activity was measured by incubating cell extracts or purified protein fractions (10 μl) at 30° C. and for 40 min in a reaction mixture containing 25 mM Hepes, pH 7.1 and 1 mM cis-aconitate in a total volume of 100 μl. […] The dry residue was derivatized and itaconic acid was quantified by GC-MS as described below. Itaconic acid concentrations were calculated by comparing the corresponding GC/MS signals obtained in samples with the one obtained after injection of known amounts of itaconic acid standards. […]
# Cis-aconitate decarboxylase activity was measured in cell extracts and purification fractions. […]
Compound,inhibition of isocitrate lyase [1],antimicrobial effect of itaconic acid (Streptococcus pyogenes),"itaconic acid concentration with significant effect on growth inhibition ([2]; 5, 10, 50, 100 mM tested, OD every hour)",bacterial growth inhibition ([2]; increasing concentrations of itaconic acid),CAD specific activity [3]
C=C(CC(=O)O)C(=O)O [itaconic acid],inhibits,less pronounced in streptococci than in Salmonella,higher than 10 mM,dose-dependent growth inhibition,
Flag-IRG1: FLAG-tagged IRG1 protein purified from HEK293T cells transfected with a pCMV6-Entry-IRG1 expression plasmid,,,,,about 40 nmol min^−1 mg protein^−1
